Source: patent publication US20220411380A1, “ACID ADDITION SALT OF RORy REGULATOR” (JIANGSU HENGRUI MEDICINE CO., LTD., priority 2019, published 2022)

Test: DVS (dynamic vapor sorption) characterization
Assay type: physicochemical
Details: for Crystalline form before and after DVS (XRPD comparison): 0-95% humidity change; for DVS weight change / Hygroscopicity: 25° C., 20.0% RH to 80.0% RH; for Hygroscopicity: DVS
Protocol: DVS refers to dynamic vapor sorption: The measurement was conducted with a Surface Measurement Systems advantage 2 at 25° C., starting from 50% humidity in humidity range of 0%-95% with a step size of 10%. The judging criterion was that the mass change of each gradient dM/dT is less than 0.002 and TMAX is less than 360 min in two circles.

[1] = accelerated test condition, 70% humidity
[2] = extreme condition, 90% humidity
[3] = normal storage condition, 60% humidity/25° C.

NC(=O)C[C@H](c1ccc(S(=O)(=O)CC2CC2)cc1)c1nc2cc(-c3ccccc3OC(F)F)c(Cl)cc2[nH]1.O=C(O)/C=C\C(=O)O
Crystalline form before and after DVS (XRPD comparison): crystalline form did not change during DVS | DVS weight change: 1.731% | Hygroscopicity: slightly hygroscopic | Vapor sorption [1]: about 1.809% | Vapor sorption [2]: about 3.077% | Vapor sorption [3]: about 1.438%

Cl.NC(=O)C[C@H](c1ccc(S(=O)(=O)CC2CC2)cc1)c1nc2cc(-c3ccccc3OC(F)F)c(Cl)cc2[nH]1 [Crystalline form β of hydrochloride of compound of formula I]
Crystalline form before and after DVS (XRPD comparison): crystalline form changed during DVS | DVS weight change: 1.235% | Hygroscopicity: slightly hygroscopic | Vapor sorption [1]: about 1.954% | Vapor sorption [2]: about 2.534% | Vapor sorption [3]: about 1.755%
